Structures are written as SMILES. pEC50: −log10 of the molar value.

The test system of the experiment is PBMCs infected with VSV-G pseudotyped HIV virus (VSV-G/pNLG1-P2A-ΔEnv). Description: cells. It counts as cell-based, human. As to conditions: Homo sapiens, PBMC, read-out: TACK EC50.
As a reminder, the pEC50 is −log10 of the EC50, conventionally taken in molar units. Regarding `O=C1Nc2cc(Cn3c(=O)[nH]c4cccnc43)c(F)cc2[C@@](C#CC2CC2)(C(F)(F)F)N1` (single isomer, unassigned) [Example 7], the pEC50 was 7.92.

As for `CC(F)(F)[C@@]1(C#CC2CC2)NC(=O)Nc2cc(Cn3cnc(C(N)=O)n3)c(F)cc21` (single isomer, unassigned) [Example 113], the pEC50 is 7.29.

`Cn1cnn(Cc2cc3c(cc2F)[C@@](C#CC2CC2)(C(C)(F)F)NC(=O)N3)c1=O` [Example 122, (S)-4-(cyclopropylethynyl)-4-(1,1-difluoroethyl)-6-fluoro-7-((4-methyl-5-oxo-4,5-dihydro-1H-1,2,4-triazol-1-yl)methyl)-3,4-dihydroquinazolin-2(1H)-one]: the pEC50 was 7.13.

In the case of `CC(F)(F)[C@@]1(C#CC2CC2)NC(=O)Nc2cc(Cn3nc(CO)cc3Cl)c(F)cc21` [Example 69, (S)-7-((5-chloro-3-(hydroxymethyl)-1H-pyrazol-1-yl)methyl)-4-(cyclopropylethynyl)-4-(1,1-difluoroethyl)-6-fluoro-3,4-dihydroquinazolin-2(1H)-one], the pEC50 is 7.53.

`COc1ncn(Cc2cc3c(cc2F)[C@@](C#CC2CC2)(C(C)(F)F)NC(=O)N3)n1` [Example 1, (S)-4-(cyclopropylethynyl)-4-(1,1-difluoroethyl)-6-fluoro-7-((3-methoxy-1H-1,2,4-triazol-1-yl)methyl)-3,4-dihydroquinazolin-2(1H)-one]: the pEC50 is 7.84.

As to `COc1cnn(Cc2cc3c(cc2Cl)[C@@](C#CC2CC2)(C(F)(F)F)NC(=O)N3)c1` [Example 123, (S)-6-chloro-4-(cyclopropylethynyl)-7-((4-methoxy-1H-pyrazol-1-yl)methyl)-4-(trifluoromethyl)-3,4-dihydroquinazolin-2(1H)-one], the pEC50 was 7.10.

Consider `O=C1Nc2cc(CNC(=O)c3nccs3)c(F)cc2[C@@](C#CC2CC2)(C(F)(F)F)N1` [Example 89, (S)-N-((4-(cyclopropylethynyl)-6-fluoro-2-oxo-4-(trifluoromethyl)-1,2,3,4-tetrahydroquinazolin-7-yl)methyl)thiazole-2-carboxamide], for which the pEC50 was 7.02.

Take `CN1CC(=O)N(Cc2cc3c(cc2F)[C@@](C#CC2CC2)(C(C)(F)F)NC(=O)N3)C1=O` [Example 110, (S)-3-((4-(cyclopropylethynyl)-4-(1,1-difluoroethyl)-6-fluoro-2-oxo-1,2,3,4-tetrahydroquinazolin-7-yl)methyl)-1-methylimidazolidine-2,4-dione]: the pEC50 was 7.36.

As for `CC(F)(F)[C@@]1(C#CC2CC2)NC(=O)Nc2cc(CNC(=O)c3ncc[nH]3)c(F)cc21` [Example 79, (S)—N-((4-(cyclopropylethynyl)-4-(1,1-difluoroethyl)-6-fluoro-2-oxo-1,2,3,4-tetrahydroquinazolin-7-yl)methyl)-1H-imidazole-2-carboxamide], the pEC50 is 8.04.

Regarding `N#Cc1c[nH]c(C(=O)NCc2cc3c(cc2F)[C@@](C#CC2CC2)(C(F)(F)F)NC(=O)N3)c1` [Example 88, (S)-4-cyano-N-((4-(cyclopropylethynyl)-6-fluoro-2-oxo-4-(trifluoromethyl)-1,2,3,4-tetrahydroquinazolin-7-yl)methyl)-1H-pyrrole-2-carboxamide], the pEC50 was 7.60.

In the case of `O=C1Nc2cc(Cn3c(=O)[nH]c4cnccc43)c(F)cc2[C@@](C#CC2CC2)(C(F)(F)F)N1` [Example 39, (S)-4-(cyclopropylethynyl)-6-fluoro-7-((2-oxo-2,3-dihydro-1H-imidazo[4,5-c]pyridin-1-yl)methyl)-4-(trifluoromethyl)-3,4-dihydroquinazolin-2(1H)-one], the pEC50 is 7.86.

For the molecule `CN(C)c1ccn(Cc2cc3c(cc2F)[C@@](C#CC2CC2)(C(C)(F)F)NC(=O)N3)n1` [Example 76, (S)-4-(cyclopropylethynyl)-4-(1,1-difluoroethyl)-7-((3-(dimethylamino)-1H-pyrazol-1-yl)methyl)-6-fluoro-3,4-dihydroquinazolin-2(1H)-one], the pEC50 was 7.22.

As to `O=C1Nc2cc(Cn3cc4cccnc4n3)c(F)cc2[C@@](C#CC2CC2)(C(F)(F)F)N1` [Example 28, (S)-7-((2H-pyrazolo[3,4-b]pyridin-2-yl)methyl)-4-(cyclopropylethynyl)-6-fluoro-4-(trifluoromethyl)-3,4-dihydroquinazolin-2(1H)-one], the pEC50 is 6.98.

Take `O=C1Nc2cc(Cc3[nH]nc4ccccc34)c(F)cc2[C@@](C#CC2CC2)(C(F)(F)F)N1` [Example 119, (S)-7-((2H-indazol-3-yl)methyl)-4-(cyclopropylethynyl)-6-fluoro-4-(trifluoromethyl)-3,4-dihydroquinazolin-2(1H)-one]: the pEC50 is 7.24.

With `COc1cn(Cc2cc3c(cc2F)[C@@](C#CC2CC2)(C(C)(F)F)NC(=O)N3)nc1N` [Example 99, (S)-7-((3-amino-4-methoxy-1H-pyrazol-1-yl)methyl)-4-(cyclopropylethynyl)-4-(1,1-difluoroethyl)-6-fluoro-3,4-dihydroquinazolin-2(1H)-one], the pEC50 was 7.88.

For `Cc1nn(Cc2cc3c(cc2F)[C@@](C#CC2CC2)(C(C)(F)F)NC(=O)N3)c2ccccc12` [Example 93, (S)-4-(cyclopropylethynyl)-4-(1,1-difluoroethyl)-6-fluoro-7-((3-methyl-1H-indazol-1-yl)methyl)-3,4-dihydroquinazolin-2(1H)-one], the pEC50 was 7.55.

Take `Nc1ccn(Cc2cc3c(cc2F)[C@@](C#CC2CC2)(C(F)(F)C2CC2)NC(=O)N3)n1` [Example 46, (S)-7-((3-amino-1H-pyrazol-1-yl)methyl)-4-(cyclopropyldifluoromethyl)-4-(cyclopropylethynyl)-6-fluoro-3,4-dihydroquinazolin-2(1H)-one]: the pEC50 is 7.57.

With `CN1CC(=O)N(Cc2cc3c(cc2F)[C@@](C#CC2CC2)(C(F)(F)F)NC(=O)N3)C1=O` [Example 9, (S)-3-((4-(cyclopropylethynyl)-6-fluoro-2-oxo-4-(trifluoromethyl)-1,2,3,4-tetrahydroquinazolin-7-yl)methyl)-1-methylimidazolidine-2,4-dione], the pEC50 was 7.13.

Regarding `COCc1cc(Cl)n(Cc2cc3c(cc2F)[C@@](C#CC2CC2)(C(C)(F)F)NC(=O)N3)n1` [Example 18, (S)-7-((5-chloro-3-(methoxymethyl)-1H-pyrazol-1-yl)methyl)-4-(cyclopropylethynyl)-4-(1,1-difluoroethyl)-6-fluoro-3,4-dihydroquinazolin-2(1H)-one], the pEC50 is 7.33.

On to `CC(F)(F)[C@@]1(C#CC2CC2)NC(=O)Nc2cc(Cn3ncnc3C(N)=O)c(F)cc21` (single isomer, unassigned) [Example 114], for which the pEC50 is 7.73.

As to `O=C1Nc2cc(Cn3cc4c(n3)CCOC4)c(F)cc2[C@@](C#CC2CC2)(C(F)(F)F)N1` (single isomer, unassigned) [Example 23], the pEC50 is 7.67.

Turning to `CC(F)(F)[C@@]1(C#CC2CC2)NC(=O)Nc2cc(Cn3cnc(N)n3)c(F)cc21` [Example 106, (S)-7-((3-amino-1H-1,2,4-triazol-1-yl)methyl)-4-(cyclopropylethynyl)-4-(1,1-difluoroethyl)-6-fluoro-3,4-dihydroquinazolin-2(1H)-one], the negative-log EC50 (pEC50) was 7.77.

For `CC(F)(F)[C@@]1(C#CC2CC2)NC(=O)Nc2cc(Cn3ccc4c3C(=O)NC4)c(F)cc21` [Example 40, (S)-4-(cyclopropylethynyl)-4-(1,1-difluoroethyl)-6-fluoro-7-((6-oxo-5,6-dihydropyrrolo[3,4-b]pyrrol-1(4H)-yl)methyl)-3,4-dihydroquinazolin-2(1H)-one], the pEC50 was 8.23.

As to `CC(F)(F)[C@@]1(C#CC2CC2)NC(=O)Nc2cc(Cn3ccc(CO)n3)c(F)cc21` [Example 2, (S)-4-(cyclopropylethynyl)-4-(1,1-difluoroethyl)-6-fluoro-7-((3-(hydroxymethyl)-1H-pyrazol-1-yl)methyl)-3,4-dihydroquinazolin-2(1H)-one], the pEC50 is 7.84.

For `Cn1ccc(-c2ccn(Cc3cc4c(cc3F)[C@@](C#CC3CC3)(C(C)(F)F)NC(=O)N4)n2)n1` [Example 53, (S)-4-(cyclopropylethynyl)-4-(1,1-difluoroethyl)-6-fluoro-7-((1′-methyl-1H,1′H-[3,3′-bipyrazol]-1-yl)methyl)-3,4-dihydroquinazolin-2(1H)-one], the pEC50 was 7.55.

Take `O=C1Nc2cc(CNC(=O)c3ncco3)c(F)cc2[C@@](C#CC2CC2)(C(F)(F)F)N1` [Example 83, (S)-N-((4-(cyclopropylethynyl)-6-fluoro-2-oxo-4-(trifluoromethyl)-1,2,3,4-tetrahydroquinazolin-7-yl)methyl)oxazole-2-carboxamide]: the pEC50 was 6.80.

On to `CC(F)(F)[C@@]1(C#CC2CC2)NC(=O)Nc2cc(Cn3cc(F)cn3)c(F)cc21` [Example 15, (S)-4-(cyclopropylethynyl)-4-(1,1-difluoroethyl)-6-fluoro-7-((4-fluoro-1H-pyrazol-1-yl)methyl)-3,4-dihydroquinazolin-2(1H)-one], for which the pEC50 is 7.56.

Source of the values: US20250026759A1 (Merck Sharp & Dohme LLC, priority 2023, published 2025).
